Data reported in ChEMBL document CHEMBL1158231, “Antiviral sulfated steroids from the ophiuroid Ophioplocus januarii” (J Nat Prod, 1996).

Experiments:
[1] = system: Human alphaherpesvirus 1; assay: Antiviral activity against HSV1 F infected african green monkey Vero cells assessed as reduction of virus plaque formation at 40 ug/mL; assay type: functional; parameters: scale not given: the % may be the effect or the level left
[2] = system: Human alphaherpesvirus 1; assay: Antiviral activity against HSV1 F infected african green monkey Vero cells assessed as reduction of virus plaque formation at 20 ug/mL; assay type: functional; parameters: scale not given: the % may be the effect or the level left
[3] = system: Human alphaherpesvirus 1; assay: Antiviral activity against HSV1 F infected african green monkey Vero cells assessed as reduction of virus plaque formation at 10 ug/mL; assay type: functional; parameters: scale not given: the % may be the effect or the level left
[4] = system: Human alphaherpesvirus 1; assay: Antiviral activity against HSV1 F infected african green monkey Vero cells assessed as reduction of virus plaque formation at 5 ug/mL; assay type: functional; parameters: scale not given: the % may be the effect or the level left
[5] = system: Poliovirus 3; assay: Antiviral activity against human poliovirus 3 Sabin infected african green monkey Vero cells assessed as reduction of virus plaque formation at 40 ug/mL; assay type: functional; parameters: scale not given: the % may be the effect or the level left
[6] = system: Poliovirus 3; assay: Antiviral activity against human poliovirus 3 Sabin infected african green monkey Vero cells assessed as reduction of virus plaque formation at 20 ug/mL; assay type: functional; parameters: scale not given: the % may be the effect or the level left
[7] = system: Poliovirus 3; assay: Antiviral activity against human poliovirus 3 Sabin infected african green monkey Vero cells assessed as reduction of virus plaque formation at 10 ug/mL; assay type: functional; parameters: scale not given: the % may be the effect or the level left
[8] = system: Poliovirus 3; assay: Antiviral activity against human poliovirus 3 Sabin infected african green monkey Vero cells assessed as reduction of virus plaque formation at 5 ug/mL; assay type: functional; parameters: scale not given: the % may be the effect or the level left
[9] = system: Junin virus; assay: Antiviral activity against Junin virus IV 4454 infected african green monkey Vero cells assessed as reduction of virus plaque formation at 40 ug/mL; assay type: functional, Mammarenavirus juninense; parameters: scale not given: the % may be the effect or the level left
[10] = system: Junin virus; assay: Antiviral activity against Junin virus IV 4454 infected african green monkey Vero cells assessed as reduction of virus plaque formation at 20 ug/mL; assay type: functional, Mammarenavirus juninense; parameters: scale not given: the % may be the effect or the level left
[11] = system: Junin virus; assay: Antiviral activity against Junin virus IV 4454 infected african green monkey Vero cells assessed as reduction of virus plaque formation at 10 ug/mL; assay type: functional, Mammarenavirus juninense; parameters: scale not given: the % may be the effect or the level left
[12] = system: Junin virus; assay: Antiviral activity against Junin virus IV 4454 infected african green monkey Vero cells assessed as reduction of virus plaque formation at 5 ug/mL; assay type: functional, Mammarenavirus juninense; parameters: scale not given: the % may be the effect or the level left
[13] = system: Respiratory syncytial virus; assay: Antiviral activity against RSV Long infected human Hep2 cells assessed as inhibition of viral-induced cytopathic effect at 40 ug/mL; assay type: functional; details: HEp-2
[14] = system: Respiratory syncytial virus; assay: Antiviral activity against RSV Long infected human Hep2 cells assessed as inhibition of viral-induced cytopathic effect at 20 ug/mL; assay type: functional; details: HEp-2
[15] = system: Respiratory syncytial virus; assay: Antiviral activity against RSV Long infected human Hep2 cells assessed as inhibition of viral-induced cytopathic effect at 10 ug/mL; assay type: functional; details: HEp-2
[16] = system: Respiratory syncytial virus; assay: Antiviral activity against RSV Long infected human Hep2 cells assessed as inhibition of viral-induced cytopathic effect at 5 ug/mL; assay type: functional; details: HEp-2
[17] = Cytotoxicity against african green monkey Vero cells assessed as cell viability at 40 ug/mL after 7 days by trypan blue exclusion method; assay type: cell-based; details: chlorocebus sabaeus, read-out: Activity
[18] = system: Vero; assay: Cytotoxicity against african green monkey Vero cells at 20 ug/mL after 7 days by trypan blue exclusion method; assay type: cell-based; details: chlorocebus sabaeus, 168 h
[19] = system: Vero; assay: Cytotoxicity against african green monkey Vero cells at 10 ug/mL after 7 days by trypan blue exclusion method; assay type: cell-based; details: chlorocebus sabaeus, 168 h
[20] = system: Vero; assay: Cytotoxicity against african green monkey Vero cells at 5 ug/mL after 7 days by trypan blue exclusion method; assay type: cell-based; details: chlorocebus sabaeus, 168 h

Row | SMILES | Activity [1] [%] | Activity [2] [%] | Activity [3] [%] | Activity [4] [%] | Activity [5] [%] | Activity [6] [%] | Activity [7] [%] | Activity [8] [%] | Activity [9] [%] | Activity [10] [%] | Activity [11] [%] | Activity [12] [%] | inhibition at 40 µg/mL [13] [%] | inhibition at 20 µg/mL [14] [%] | inhibition at 10 µg/mL [15] [%] | inhibition at 5 µg/mL [16] [%] | viability at 168 h, 40 ug/mL [17] [%] | Activity [18] | Activity [19] | Activity [20]
1 | CC(C)C/C=C/[C@@H](COS(=O)(=O)[O-])[C@H]1CC[C@H]2[C@@H]3CC[C@@H]4[C@H](O)[C@H](OS(=O)(=O)[O-])CC[C@]4(C)[C@H]3[C@@H](O)C[C@]12C.[Na+].[Na+] | 39 | 14 | 0 | 0 | 68 | 35 | 0 | 0 | 47 | 36 | 31 | 15 | 75 | 50 | 25 | 0 | 100 | Non-toxic | Non-toxic | Non-toxic
2 | CC(C)CCC[C@@H](COS(=O)(=O)[O-])[C@H]1CC[C@H]2[C@@H]3CC[C@@H]4[C@H](O)[C@H](OS(=O)(=O)[O-])CC[C@]4(C)[C@H]3[C@@H](O)C[C@]12C.[Na+].[Na+] | 35 | 8 | 7 | 2 | 30 | 24 | 0 | 0 | 33 | 28 | 26 | 24 | 25 | 25 | 0 | 0 | 100 | Non-toxic | Non-toxic | Non-toxic
3 | CC(C)/C=C/[C@@H](COS(=O)(=O)[O-])[C@H]1CC[C@H]2[C@@H]3CC[C@@H]4[C@H](O)[C@H](OS(=O)(=O)[O-])CC[C@]4(C)[C@H]3[C@@H](O)C[C@]12C.[Na+].[Na+] | 36 | 12 | 0 | 0 | 65 | 37 | 8 | 0 | 37 | 29 | 21 | 10 | 75 | 50 | 0 | 0 | 100 | Non-toxic | Non-toxic | Non-toxic
4 | C=C(CC[C@@H](COS(=O)(=O)[O-])[C@H]1CC[C@H]2[C@@H]3CC[C@@H]4[C@H](O)[C@H](OS(=O)(=O)[O-])CC[C@]4(C)[C@H]3[C@@H](O)C[C@]12C)C(C)C.[Na+].[Na+] | 36 | 20 | 11 | 3 | 31 | 16 | 0 | 0 | 54 | 38 | 33 | 19 | 50 | 25 | 25 | 0 | 100 | Non-toxic | Non-toxic | Non-toxic
